Test results as given in the NIST ThermoML archive (doi:10.1016/j.fluid.2014.10.004).

Experiments:
[1] = refractive index (Na D-line) (dimensionless); xn = mol fraction of the nth substance listed; conditions: 101.3 kPa, Liquid, Standard Abbe refractometry
[2] = xn = mol fraction of the nth substance listed; conditions: 101.3 kPa, Liquid, Sing-around technique in a fixed-path interferometer

ClCCCCCl [1,4-dichlorobutane] + C[N+](=O)[O-]
Conditions	refractive index, 298.15 K	refractive index, 308.15 K	refractive index, 318.15 K	speed of sound, 298.15 K [m/s]	speed of sound, 308.15 K [m/s]	speed of sound, 318.15 K [m/s]
[1], x1 = 0.0825	1.38965	1.38514	1.38078	–	–	–
[1], x1 = 0.1759	1.39985	1.39614	1.39174	–	–	–
[1], x1 = 0.2825	1.40987	1.40646	1.40219	–	–	–
[1], x1 = 0.3815	1.41799	1.41451	1.41005	–	–	–
[1], x1 = 0.4815	1.42515	1.42129	1.41679	–	–	–
[1], x1 = 0.5911	1.43204	1.4279	1.42357	–	–	–
[1], x1 = 0.6898	1.43765	1.43335	1.42901	–	–	–
[1], x1 = 0.8208	1.4443	1.43965	1.43512	–	–	–
[1], x1 = 0.9262	1.44906	1.44436	1.43974	–	–	–
[1], x1 = 1	1.45224	1.44756	1.44279	–	–	–
[2], x1 = 0.0825	–	–	–	1308.1	1269.3	1230.6
[2], x1 = 0.1759	–	–	–	1298.3	1260	1221.8
[2], x1 = 0.2825	–	–	–	1291.3	1253.5	1215.8
[2], x1 = 0.3815	–	–	–	1287.2	1249.9	1212.7
[2], x1 = 0.4815	–	–	–	1285	1248	1211.2
[2], x1 = 0.5911	–	–	–	1284	1247.3	1210.8
[2], x1 = 0.6898	–	–	–	1283.9	1247.5	1211.3
[2], x1 = 0.8208	–	–	–	1284.6	1248.6	1212.8
[2], x1 = 0.9262	–	–	–	1285.7	1249.9	1214.4
[2], x1 = 1	–	–	–	1286.6	1251	1215.7

CCCCCl [1-chlorobutane] + C[N+](=O)[O-]
x1 = 1
Conditions	refractive index, 298.15 K	refractive index, 308.15 K	refractive index, 318.15 K	speed of sound, 298.15 K [m/s]	speed of sound, 308.15 K [m/s]	speed of sound, 318.15 K [m/s]
[1]	1.39953	1.39413	1.38851	–	–	–
[2]	–	–	–	1119	1078	1037.3

CCCCCCl [1-chloropentane] + C[N+](=O)[O-]
Conditions	refractive index, 298.15 K	refractive index, 308.15 K	refractive index, 318.15 K	speed of sound, 298.15 K [m/s]	speed of sound, 308.15 K [m/s]	speed of sound, 318.15 K [m/s]
[1], x1 = 0.1044	1.38453	1.37934	1.37439	–	–	–
[1], x1 = 0.1721	1.38722	1.3821	1.377	–	–	–
[1], x1 = 0.2575	1.39056	1.38539	1.38037	–	–	–
[1], x1 = 0.3466	1.39367	1.38858	1.38354	–	–	–
[1], x1 = 0.4525	1.39687	1.39181	1.38674	–	–	–
[1], x1 = 0.5435	1.39934	1.39422	1.38916	–	–	–
[1], x1 = 0.6864	1.40308	1.39792	1.39268	–	–	–
[1], x1 = 0.8325	1.40646	1.4012	1.396	–	–	–
[1], x1 = 0.8859	1.4076	1.40244	1.3972	–	–	–
[1], x1 = 1	1.41015	1.40501	1.39984	–	–	–
[2], x1 = 0.1043	–	–	–	1276	1237	1197.9
[2], x1 = 0.1721	–	–	–	1253.5	1214.4	1175.3
[2], x1 = 0.2575	–	–	–	1231.2	1192.3	1153.4
[2], x1 = 0.3466	–	–	–	1213.7	1174.8	1135.8
[2], x1 = 0.4525	–	–	–	1198.2	1159.2	1120.1
[2], x1 = 0.5435	–	–	–	1188.6	1149.2	1110.1
[2], x1 = 0.6864	–	–	–	1177.1	1137.8	1098.5
[2], x1 = 0.8325	–	–	–	1169.4	1130.1	1090.8
[2], x1 = 0.8859	–	–	–	1167.6	1128.1	1088.9
[2], x1 = 1	–	–	–	1164.2	1124.9	1085.8

C[N+](=O)[O-] [nitromethane] + CC(Cl)(Cl)Cl
x2 = 0
Conditions	refractive index, 298.15 K	refractive index, 308.15 K	refractive index, 318.15 K	speed of sound, 298.15 K [m/s]	speed of sound, 308.15 K [m/s]	speed of sound, 318.15 K [m/s]
[1]	1.37949	1.37473	1.36995	–	–	–
[2]	–	–	–	1321.6	1281.9	1242.5

C[N+](=O)[O-] [nitromethane] + CCCCCCl
x2 = 0
Conditions	refractive index, 298.15 K	refractive index, 308.15 K	refractive index, 318.15 K	speed of sound, 298.15 K [m/s]	speed of sound, 308.15 K [m/s]	speed of sound, 318.15 K [m/s]
[1]	1.37954	1.3747	1.36996	–	–	–
[2]	–	–	–	1321.7	1282	1242.6

C[N+](=O)[O-] [nitromethane] + CCCCCl
Conditions	refractive index, 298.15 K	refractive index, 308.15 K	refractive index, 318.15 K	speed of sound, 298.15 K [m/s]	speed of sound, 308.15 K [m/s]	speed of sound, 318.15 K [m/s]
[1], x2 = 0	1.37917	1.37447	1.3695	–	–	–
[1], x2 = 0.1107	1.38191	1.37698	1.3718	–	–	–
[1], x2 = 0.2174	1.38445	1.37936	1.37406	–	–	–
[1], x2 = 0.3236	1.38691	1.38174	1.37632	–	–	–
[1], x2 = 0.3932	1.38839	1.38321	1.37772	–	–	–
[1], x2 = 0.4856	1.39032	1.38511	1.37958	–	–	–
[1], x2 = 0.5569	1.39177	1.38656	1.38104	–	–	–
[1], x2 = 0.6626	1.39383	1.38853	1.38299	–	–	–
[1], x2 = 0.7722	1.39577	1.39045	1.3848	–	–	–
[1], x2 = 0.8646	1.39729	1.39196	1.38635	–	–	–
[2], x2 = 0	–	–	–	1321.5	1282.1	1242.8
[2], x2 = 0.1107	–	–	–	1273.7	1234.3	1195
[2], x2 = 0.2174	–	–	–	1236.5	1197.1	1157.8
[2], x2 = 0.3236	–	–	–	1207.6	1168.1	1128.9
[2], x2 = 0.3932	–	–	–	1191.9	1152.3	1112.8
[2], x2 = 0.4856	–	–	–	1174.5	1134.7	1094.9
[2], x2 = 0.5569	–	–	–	1163.5	1123.2	1083.1
[2], x2 = 0.6626	–	–	–	1149.3	1109.1	1068.9
[2], x2 = 0.7722	–	–	–	1137.6	1096.8	1056.6
[2], x2 = 0.8646	–	–	–	1129.1	1088.3	1047.8

C[N+](=O)[O-] [nitromethane] + ClC(Cl)C(Cl)Cl
x2 = 0
Conditions	refractive index, 298.15 K	refractive index, 308.15 K	refractive index, 318.15 K	speed of sound, 298.15 K [m/s]	speed of sound, 308.15 K [m/s]	speed of sound, 318.15 K [m/s]
[1]	1.37946	1.37472	1.36996	–	–	–
[2]	–	–	–	1321.2	1281.8	1242.5
